Target: T1, USP7 (Homo sapiens, UniProt Q93009)
T1 construct: The USP7 construct was PCR amplified and cloned into a pFLAG-CMV-6a vector (Sigma-Aldrich) with an N-terminal FLAG tag; made in house; host or cells: HEK293T
Experiment: USP7 biochemical IC50 assay (fluorescence polarisation, TAMRA labelled peptide linked to ubiquitin via an iso-peptide bond)
Conditions: 30 min pre-incubation of enzyme and compound, read after 2 hr incubation at room temperature, read-out: IC50 range
Method in brief: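 Fluorescence polarisation at 540 nm excitation/590 nm emission, read immediately and after 2 hr at room temperature, following addition of 50 nM TAMRA-labelled iso-peptide ubiquitin substrate.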

T1 sequence (Q93009 whole entry): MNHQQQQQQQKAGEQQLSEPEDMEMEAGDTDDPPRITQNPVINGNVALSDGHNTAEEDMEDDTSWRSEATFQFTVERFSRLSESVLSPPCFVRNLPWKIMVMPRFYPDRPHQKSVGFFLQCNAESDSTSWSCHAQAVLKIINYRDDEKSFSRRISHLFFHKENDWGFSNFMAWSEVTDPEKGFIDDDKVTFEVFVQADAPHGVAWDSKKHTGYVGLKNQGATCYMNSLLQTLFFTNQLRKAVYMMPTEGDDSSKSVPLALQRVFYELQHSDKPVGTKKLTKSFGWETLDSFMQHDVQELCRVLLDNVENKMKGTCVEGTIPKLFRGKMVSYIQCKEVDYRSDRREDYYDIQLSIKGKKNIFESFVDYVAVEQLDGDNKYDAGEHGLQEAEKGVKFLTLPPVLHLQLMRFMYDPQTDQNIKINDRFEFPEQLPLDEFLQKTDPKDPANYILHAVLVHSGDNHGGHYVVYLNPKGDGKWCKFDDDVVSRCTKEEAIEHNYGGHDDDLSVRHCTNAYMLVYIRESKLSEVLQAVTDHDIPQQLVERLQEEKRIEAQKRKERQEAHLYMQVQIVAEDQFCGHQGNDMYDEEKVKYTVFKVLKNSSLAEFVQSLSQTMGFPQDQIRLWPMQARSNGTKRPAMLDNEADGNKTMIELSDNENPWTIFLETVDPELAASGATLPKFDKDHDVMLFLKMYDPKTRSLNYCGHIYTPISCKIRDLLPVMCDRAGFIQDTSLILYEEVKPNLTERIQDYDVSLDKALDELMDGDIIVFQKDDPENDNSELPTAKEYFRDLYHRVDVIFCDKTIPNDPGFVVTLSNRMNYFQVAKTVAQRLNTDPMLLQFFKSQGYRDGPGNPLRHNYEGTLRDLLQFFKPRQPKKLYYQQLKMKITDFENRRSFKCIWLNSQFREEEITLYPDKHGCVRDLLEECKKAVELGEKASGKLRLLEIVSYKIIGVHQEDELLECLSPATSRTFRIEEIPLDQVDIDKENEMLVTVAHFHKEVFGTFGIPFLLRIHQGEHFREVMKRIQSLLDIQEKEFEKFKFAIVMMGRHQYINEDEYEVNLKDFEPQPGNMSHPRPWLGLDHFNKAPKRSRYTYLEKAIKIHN

Compound | IC50 [µM]
N#CN1Cc2nc(NCc3ccco3)nc(-c3ccccc3)c2C1 [Example 121, 2-((furan-2-ylmethyl)amino)-4-phenyl-5,7-dihydro-6H-pyrrolo[3,4-d]pyrimidine-6-carbonitrile] | 10 to 30
N#CN1Cc2nc(NCCCn3ccnc3)nc(-c3ccccc3)c2C1 [Example 122, 2-((3-(1H-imidazol-1-yl)propyl)amino)-4-phenyl-5,7-dihydro-6H-pyrrolo[3,4-d]pyrimidine-6-carbonitrile] | 1 to 10
CCNc1nc2c(c(-c3ccccc3C(N)=O)n1)CN(C#N)C2 [Example 123, 2-(6-cyano-2-(ethylamino)-6,7-dihydro-5H-pyrrolo[3,4-c]pyrimidin-4-yl)benzamide] | 10 to 30
CN1CCOC(CNc2nc3c(c(-c4ccccc4)n2)CN(C#N)C3)C1 (centres unmarked) [Example 124, 2-(((4-methylmorpholin-2-yl)methyl)amino)-4-phenyl-5,7-dihydro-6H-pyrrolo[3,4-d]pyrimidine-6-carbonitrile] | 1 to 10
CN1CCCC(CNc2nc3c(c(-c4ccccc4)n2)CN(C#N)C3)C1 (centres unmarked) [Example 125, 2-(((1-methylpiperidin-3-yl)methyl)amino)-4-phenyl-5,7-dihydro-6H-pyrrolo[3,4-d]pyrimidine-6-carbonitrile] | 1 to 10
Cn1nccc1CNc1nc2c(c(-c3ccccc3)n1)CN(C#N)C2 [Example 126, 2-(((1-methyl-1H-pyrazol-5-yl)methyl)amino)-4-phenyl-5,7-dihydro-6H-pyrrolo[3,4-d]pyrimidine-6-carbonitrile] | 1 to 10
CN1CCC(CNc2nc3c(c(-c4ccccc4)n2)CN(C#N)C3)C1 (centres unmarked) [Example 127, 2-(((1-methylpyrrolidin-3-yl)methyl)amino)-4-phenyl-5,7-dihydro-6H-pyrrolo[3,4-d]pyrimidine-6-carbonitrile] | 1 to 10
CC(=O)Nc1nc2c(c(N3CCc4ccccc4C3)n1)CN(C#N)C2 [Example 128, N-(6-cyano-4-(3,4-dihydroisoquinolin-2(1H)-yl)-6,7-dihydro-5H-pyrrolo[3,4-d]pyrimidin-2-yl)acetamide] | 1 to 10
N#CN1Cc2nc(NC(=O)C3CNC(=O)C3)nc(-c3ccccc3)c2C1 (centres unmarked) [Example 129, N-(6-cyano-4-phenyl-6,7-dihydro-5H-pyrrolo[3,4-c]pyrimidin-2-yl)-5-oxopyrrolidine-3-carboxamide] | 10 to 30
COc1ccc(-c2nc3c(c(N4CCCC4)n2)CN(C#N)C3)cc1 [Example 130, 2-(4-methoxyphenyl)-4-(pyrrolidin-1-yl)-5,7-dihydro-6H-pyrrolo[3,4-c]pyrimidine-6-carbonitrile] | 10 to 30
N#CN1Cc2nc(-c3ccccc3)nc(N3CCCC3C(N)=O)c2C1 (centres unmarked) [Example 131, 1-(6-cyano-2-phenyl-6,7-dihydro-5H-pyrrolo[3,4-d]pyrimidin-4-yl)pyrrolidine-2-carboxamide] | 10 to 30
N#CN1Cc2nc(-c3ccccc3)nc(NCC(N)=O)c2C1 [Example 132, 2-((6-cyano-2-phenyl-6,7-dihydro-5H-pyrrolo[3,4-d]pyrimidin-4-yl)amino)acetamide] | 10 to 30
CNC(=O)C1CCCN1c1nc(-c2ccccc2)nc2c1CN(C#N)C2 (centres unmarked) [Example 133, 1-(6-cyano-2-phenyl-6,7-dihydro-5H-pyrrolo[3,4-d]pyrimidin-4-yl)-N-methylpyrrolidine-2-carboxamide] | 10 to 30
Cc1[nH]ncc1-c1nc2c(c(N3CCCC3)n1)CN(C#N)C2 [Example 134, 2-(5-methyl-1H-pyrazol-4-yl)-4-(pyrrolidin-1-yl)-5,7-dihydro-6H-pyrrolo[3,4-d]pyrimidine-6-carbonitrile] | 10 to 30
COc1ccccc1-c1nc2c(c(N3CCCC3)n1)CN(C#N)C2 [Example 135, 2-(2-methoxyphenyl)-4-(pyrrolidin-1-yl)-5,7-dihydro-6H-pyrrolo[3,4-d]pyrimidine-6-carbonitrile] | 1 to 10
COc1cccc(-c2nc3c(c(N4CCCC4)n2)CN(C#N)C3)c1 [Example 136, 2-(3-methoxyphenyl)-4-(pyrrolidin-1-yl)-5,7-dihydro-6H-pyrrolo[3,4-d]pyrimidine-6-carbonitrile] | 30 to 100
N#CN1Cc2nc(-c3cccnc3)nc(N3CCCC3)c2C1 [Example 137, 2-(pyridin-3-yl)-4-(pyrrolidin-1-yl)-5,7-dihydro-6H-pyrrolo[3,4-d]pyrimidine-6-carbonitrile] | 1 to 10
N#CN1Cc2nc(-c3ccccc3C(N)=O)nc(N3CCc4ccccc4C3)c2C1 [Example 138, 2-(6-cyano-4-(3,4-dihydroisoquinolin-2(1H)-yl)-6,7-dihydro-5H-pyrrolo[3,4-d]pyrimidin-2-yl)benzamide] | 1 to 10
Cc1[nH]ncc1-c1nc2c(c(N3CCc4ccccc4C3)n1)CN(C#N)C2 [Example 139, 4-(3,4-dihydroisoquinolin-2(1H)-yl)-2-(5-methyl-1H-pyrazol-4-yl)-5,7-dihydro-6H-pyrrolo[3,4-d]pyrimidine-6-carbonitrile] | 1 to 10
COc1ccccc1-c1nc2c(c(N3CCc4ccccc4C3)n1)CN(C#N)C2 [Example 140, 4-(3,4-dihydroisoquinolin-2(1H)-yl)-2-(2-methoxyphenyl)-5,7-dihydro-6H-pyrrolo[3,4-d]pyrimidine-6-carbonitrile] | 1 to 10
N#Cc1cccc(-c2nc3c(c(N4CCc5ccccc5C4)n2)CN(C#N)C3)c1 [Example 141, 2-(3-cyanophenyl)-4-(3,4-dihydroisoquinolin-2(1H)-yl)-5,7-dihydro-6H-pyrrolo[3,4-d]pyrimidine-6-carbonitrile] | 1 to 10

Compound | IC50 [µM]
Cn1cc(-c2nc3c(c(N4CCc5ccccc5C4)n2)CN(C#N)C3)cn1 [Example 142, 4-(3,4-dihydroisoquinolin-2(1H)-yl)-2-(1-methyl-1H-pyrazol-4-yl)-5,7-dihydro-6H-pyrrolo[3,4-d]pyrimidine-6-carbonitrile] | 1 to 10
Cc1ccccc1-c1nc2c(c(N3CCCC3C(N)=O)n1)CN(C#N)C2 (centres unmarked) [Example 143, 1-(6-cyano-2-(o-tolyl)-6,7-dihydro-5H-pyrrolo[3,4-d]pyrimidin-4-yl)pyrrolidine-2-carboxamide] | 10 to 30
Cc1[nH]ncc1-c1nc2c(c(N3CCCC3C(N)=O)n1)CN(C#N)C2 (centres unmarked) [Example 144, 1-(6-cyano-2-(5-methyl-1H-pyrazol-4-yl)-6,7-dihydro-5H-pyrrolo[3,4-d]pyrimidin-4-yl)pyrrolidine-2-carboxamide] | 10 to 30
N#CN1Cc2nc(-c3cn[nH]c3)nc(N3CCc4ccccc4C3)c2C1 [Example 145, 4-(3,4-dihydroisoquinolin-2(1H)-yl)-2-(1H-pyrazol-4-yl)-5,7-dihydro-6H-pyrrolo[3,4-d]pyrimidine-6-carbonitrile] | 1 to 10
COCCn1cc(-c2nc3c(c(N4CCc5ccccc5C4)n2)CN(C#N)C3)cn1 [Example 146] | < 1
Cc1[nH]ncc1-c1nc2c(c(N3CCc4cccnc4C3)n1)CN(C#N)C2 [Example 147, 4-(5,8-dihydro-1,7-naphthyridin-7(6H)-yl)-2-(5-methyl-1H-pyrazol-4-yl)-5,7-dihydro-6H-pyrrolo[3,4-d]pyrimidine-6-carbonitrile] | 1 to 10
CC(=O)Nc1nc2c(c(N3CCCC3)n1)CN(C#N)C2 [Example 148, N-(6-cyano-4-(pyrrolidin-1-yl)-6,7-dihydro-5H-pyrrolo[3,4-d]pyrimidin-2-yl)acetamide] | 10 to 30
N#CN1Cc2nc(Cl)nc(-c3ccc(F)cc3)c2C1 [Example 149, 2-chloro-4-(4-fluorophenyl)-5,7-dihydro-6H-pyrrolo[3,4-d]pyrimidine-6-carbonitrile] | 10 to 30
N#CN1Cc2nc(Cl)nc(-c3ccccc3F)c2C1 [Example 150, 2-chloro-4-(2-fluorophenyl)-5,7-dihydro-6H-pyrrolo[3,4-d]pyrimidine-6-carbonitrile] | 30 to 100
Cc1nc2c(c(-c3ccc(F)cc3)n1)CN(C#N)C2 [Example 151, 4-(4-fluorophenyl)-2-methyl-5,7-dihydro-6H-pyrrolo[3,4-d]pyrimidine-6-carbonitrile] | 1 to 10
N#CN1Cc2cccc(-c3ccccc3C(=O)N3CCCC3)c2C1 [Example 155, 4-(2-(pyrrolidine-1-carbonyl)phenyl)isoindoline-2-carbonitrile] | 10 to 30
Cc1cc(-c2cccc3c2CN(C#N)C3)c(C(N)=O)cc1C#N [Example 156, 5-cyano-2-(2-cyanoisoindolin-4-yl)-4-methylbenzamide] | 1 to 10
N#CN1Cc2cccc(-c3ccccc3C(N)=O)c2C1 [Example 157, 2-(2-cyanoisoindolin-4-yl)benzamide] | 1 to 10
N#CN1Cc2cccc(-c3ccc(F)cc3C(N)=O)c2C1 [Example 158, 2-(2-cyanoisoindolin-4-yl)-5-fluorobenzamide] | 1 to 10
CC(=O)c1ccccc1-c1cccc2c1CN(C#N)C2 [Example 159, 4-(2-acetylphenyl)isoindoline-2-carbonitrile] | 1 to 10
CNS(=O)(=O)c1ccccc1-c1cccc2c1CN(C#N)C2 [Example 160, 2-(2-cyanoisoindolin-4-yl)-N-methylbenzenesulfonamide] | 1 to 10
N#CN1Cc2cccc(-c3ccccc3S(N)(=O)=O)c2C1 [Example 161, 2-(2-cyanoisoindolin-4-yl)benzenesulfonamide] | 1 to 10
CS(=O)(=O)c1ccccc1-c1cccc2c1CN(C#N)C2 [Example 162, 4-(2-(methylsulfonyl)phenyl)isoindoline-2-carbonitrile] | 1 to 10
CN1CCC[C@@H](C(=O)Nc2cc3c(c(-c4ccncc4)c2)CN(C#N)C3)C1 [Example 163, (R)-N-(2-cyano-7-(pyridin-4-yl)isoindolin-5-yl)-1-methylpiperidine-3-carboxamide] | 1 to 10
CN1CCC[C@@H](C(=O)Nc2cc3c(c(-c4cccnc4)c2)CN(C#N)C3)C1 [Example 164, (R)-N-(2-cyano-7-(pyridin-3-yl)isoindolin-5-yl)-1-methylpiperidine-3-carboxamide] | 1 to 10

From patent publication US10683269B2 (MISSION THERAPEUTICS LIMITED, priority 2016, dated 2020)
